Patent publication US11578130B2, “Regulatable chimeric antigen receptor” (Novartis AG, priority 2013, dated 2023)

Tests used:
[1] = system: influenza vaccine strains; assay: Clinical trial: serologic response to 2012 seasonal influenza vaccine, primary endpoint across the 3 vaccine strains (HI GMT ratio); assay type: in vivo, human; conditions: for primary endpoint of the study (HI GMT ratio versus placebo): ITT population
H3N2 A/Victoria/210/2009 = assay: Clinical trial: hemagglutination inhibition titers and seroconversion, vaccine strain A/H3N2; assay type: in vivo, human
Procedure: (§1) The trial was observer-blind because the placebo in the RAD001 0.5 mg daily and 20 mg weekly cohorts differed slightly from the RAD001 tablets in those cohorts. […] The treatment duration for all cohorts was 6 weeks during which time subjects underwent safety evaluations in the clinic every 2 weeks. After subjects had been dosed for 4 weeks, RAD001 steady state levels were measured pre-dose and at one hour post dose. After completing the 6 week course of study drug, subjects were given a 2 week drug free break to reverse any possible RAD001-induced immunosuppression, and then were given a 2012 seasonal influenza vaccination (Agrippal®, Novartis Vaccines and Diagnostics, Siena, Italy) containing the strains H1N1 A/California/07/2009, H3N2 A/Victoria/210/2009, B/Brisbane/60/2008. Four weeks after influenza vaccination, subjects had serum collected for influenza titer measurements. Antibody titers to the 3 influenza vaccine strains as well as to 2 heterologous strains (A/H1N1 strain A/New Jersey/8/76 and A/H3N2 strain A/Victoria/361/11) were measured by standard hemagglutination inhibition assay (Kendal, A P et al. (1982) Concepts and procedures for laboratory-based influenza surveillance. Atlanta: Centers for Disease Control and Prevention B17-B35).
(§2) The ability of RAD001 to improve immune function in elderly volunteers was evaluated by measuring the serologic response to the 2012 seasonal influenza vaccine. The hemagglutination inhibition (HI) geometric mean titers (GMT) to each of the 3 influenza vaccine strains at baseline and 4 weeks after influenza vaccination are provided in Table 22. The primary analysis variable was the HI GMT ratio (4 weeks post vaccination/baseline). […] This endpoint was chosen because a 1.2-fold increase in the influenza GMT ratio induced by the MF-59 vaccine adjuvant was associated with a decrease in influenza illness (Iob, A et al. (2005) Epidemiol Infect 133:687-693).
(§3) Rates of seroconversion 4 weeks after influenza vaccination were also evaluated. Seroconversion was defined as the change from a negative pre-vaccination titer (i.e., HI titer <1:10) to post-vaccination HI titer ≥1:40 or at least 4-fold increase from a non-negative (≥1:10) pre-vaccination HI titer.

[2] = Clinical trial: RAD001 trough levels in blood; assay type: in vivo, human
[3] = system: PD-1 positive CD4 and CD8 T cells; assay: Clinical trial: immunophenotyping of PBMC by flow cytometry; assay type: in vivo, human
[4] = system: Jurkat cells with NFAT-LUC reporter (JNL); assay: Activation of CD19 RCAR with extracellular FKBP/FRB switch (half and full switches) by RAD001, NFAT luciferase; assay type: cell-based; conditions: extracellular half switch 1; 5 nM and 50 nM
Procedure: The RCAR constructs were expressed in a Jurkat reporter cell line. Jurkat cells with NFAT-LUC reporter (JNL) were grown to the density of 0.5×10^6/ml in Jurkat cell growth media with puromycin at 0.5 μg/ml. For each transfection 2.5×10^6 cells were spin down at 100 g for 10 minutes. Two μg of DNA per RCAR construct were used per transfection. Amaxa Nucleofector solution V and supplement I was mixed and 100 μl was added into the tube with DNA construct. The mixture was then added to the cells and transferred to the electroporation cuvette. Electroporation was done under setting X-001 using Amaxa Nucleofector II Device. 0.5 ml of growth media was added immediately after electroporation and the mixture were transferred into 2 ml growth media in one well of the 6-well plate.
After one hour, RAD001 compound was applied at various concentrations: 0 nM, 0.01 nM, 0.03 nM, 0.1 nM, 0.3 nM, 1 nM, 5 nM, and 50 nM. Tissue culture plate was coated with 5 μg/ml of anti anti-CD19 antibody or isotype control for 2 hrs, blocked with the blocking buffer (DPBS with 5% serum) for 1 hour. The transfected cells with or without Rad001 were resuspended and added to the target plate with 100 μl per well and incubated for 18 hrs. Luciferase One Glo reagent 100 μl was added per well. The samples were incubated for 5 min at 37° C. and then luminescence was measured using Envision plate reader.

[5] = system: H1N1 A/California/07/2009; assay: Clinical trial: hemagglutination inhibition titers and seroconversion, vaccine strain A/H1N1; assay type: in vivo, human
Procedure: as §1, §2, §3

[6] = Baseline (2 weeks prior to influenza vaccination), RAD001 0.5 mg daily, N = 50
[7] = Baseline (2 weeks prior to influenza vaccination), RAD001 5 mg weekly, N = 49
[8] = Baseline (2 weeks prior to influenza vaccination), RAD001 20 mg weekly, N = 49
[9] = Intention to Treat Population, 0.5 mg, N = 48
[10] = Intention to Treat Population, 5 mg, N = 49
[11] = Intention to Treat Population, 20 mg, N = 48
[12] = Subjects with Baseline Titers <=40, 0.5 mg
[13] = Subjects with Baseline Titers <=40, 5 mg
[14] = Subjects with Baseline Titers <=40, 20 mg
[15] = Week 4 after influenza vaccination, RAD001 0.5 mg daily, N = 50
[16] = Week 4 after influenza vaccination, RAD001 5 mg weekly, N = 49
[17] = Week 4 after influenza vaccination, RAD001 20 mg weekly, N = 49

Question: Which “primary endpoint of the study (HI GMT ratio versus placebo)” value ([1]; RAD001 0.5 mg daily or 5 mg weekly) does the source give for `CO[C@H]1C[C@@H]2CC[C@@H](C)[C@@](O)(O2)C(=O)C(=O)N2CCCC[C@H]2C(=O)O[C@H]([C@H](C)C[C@@H]2CC[C@@H](OCCO)[C@H](OC)C2)CC(=O)[C@H](C)/C=C(\C)[C@@H](O)[C@@H](OC)C(=O)[C@H](C)C[C@H](C)/C=C/C=C/C=C/1C` [RAD001, (1R,9S,12S,15R,16E,18R,19R,21R,23S,24E,26E,28E,30S,32S,35R)-1,18-dihydroxy-12-{(1R)-2-[(1S,3R,4R)-4-(2-hydroxyethoxy)-3-methoxycyclohexyl]-1-methylethyl}-19,30-dimethoxy-15,17,21,23,29,35-hexamethyl-11,36-dioxa-4-aza-tricyclo[30.3.1.04,9]hexatriaconta-16,24,26,28-tetraene-2,3,10,14,20-pentaone] here?
Answer: met the GMT primary endpoint

Question: What about the “primary endpoint of the study (HI GMT ratio versus placebo)” value ([1]; RAD001 20 mg weekly) of the same molecule?
Answer: but not higher dose (20 mg weekly) cohort met the primary endpoint

Question: And the “increase in influenza titers in subgroup” value ([1]; human, in vivo)?
Answer: greater RAD001-associated increase in titers than did the ITT population

Question: And the “HI GMT, A/H3N2” value (H3N2 A/Victoria/210/2009; [6])?
Answer: 106.8

Question: What about the “HI GMT, A/H3N2” value (H3N2 A/Victoria/210/2009; [7]) of the same molecule?
Answer: 126.04

Question: And the “HI GMT, A/H3N2” value (H3N2 A/Victoria/210/2009; [8])?
Answer: 137.1

Question: What about the “Percent of subjects with seroconversion to influenza 4 weeks after vaccination, H3N2” value (“Percent of subjects with seroconversion … H3N2” for short) (H3N2 A/Victoria/210/2009; [9]) of the same molecule?
Answer: 27%

Question: And the “Percent of subjects with seroconversion … H3N2” value (H3N2 A/Victoria/210/2009; [10])?
Answer: 24%

Question: What about the “Percent of subjects with seroconversion … H3N2” value (H3N2 A/Victoria/210/2009; [11]) of the same molecule?
Answer: 25%

Question: And the “GMT ratio (week 4 post vaccination/baseline), A/H3N2” value (H3N2 A/Victoria/210/2009; RAD001 0.5 mg daily, N = 50)?
Answer: 2.1

Question: What about the “GMT ratio (week 4 post vaccination/baseline), A/H3N2” value (H3N2 A/Victoria/210/2009; RAD001 5 mg weekly, N = 49) of the same molecule?
Answer: 2.0

Question: And the “GMT ratio (week 4 post vaccination/baseline), A/H3N2” value (H3N2 A/Victoria/210/2009; RAD001 20 mg weekly, N = 49)?
Answer: 2.1

Question: What about the “Percent of subjects with seroconversion … H3N2” value (H3N2 A/Victoria/210/2009; [12]) of the same molecule?
Answer: 64%

Question: And the “Percent of subjects with seroconversion … H3N2” value (H3N2 A/Victoria/210/2009; [13])?
Answer: 53%

Question: And the “Percent of subjects with seroconversion … H3N2” value (H3N2 A/Victoria/210/2009; [14])?
Answer: 71%

Question: What about the “HI GMT, A/H3N2” value (H3N2 A/Victoria/210/2009; [15]) of the same molecule?
Answer: 194.4

Question: And the “HI GMT, A/H3N2” value (H3N2 A/Victoria/210/2009; [16])?
Answer: 223.0

Question: What about the “HI GMT, A/H3N2” value (H3N2 A/Victoria/210/2009; [17]) of the same molecule?
Answer: 223.0

Question: And the “average RAD001 trough level” value ([2]; 5 mg weekly, 0.3 ng/ml is the lower limit of quantification)?
Answer: below detection limits

Question: What about the “trough level of study regimens relative to approved regimens, fold lower” value ([2]; dosing regimens used in the immunization study) of the same molecule?
Answer: 3-20 fold

Question: And the “percentage of PD-1 negative CD4 T cells” value ([3]; RAD001 cohorts as compared to the placebo cohorts)?
Answer: increased

Question: What about the “percentage of CD4 PD-1 positive T cells” value ([3]; week 6 and 12, all RAD001 cohorts) of the same molecule?
Answer: decreased from baseline

Question: And the “percentage of CD8 PD-1 positive cells” value ([3]; week 6 and 12, the two lower dose RAD001 cohorts)?
Answer: decreased from baseline

Question: And the “NFAT activity at the higher dosages of RAD001” value [4]?
Answer: no inhibition of activity was observed

Question: What about the “HI GMT, A/H1N1” value [5, 6] of the same molecule?
Answer: 102.8

Question: What about the “HI GMT, A/H1N1” value [5, 7] of the same molecule?
Answer: 84.2

Question: What about the “HI GMT, A/H1N1” value [5, 8] of the same molecule?
Answer: 90.1

Question: And the “Percent of subjects with seroconversion to influenza 4 weeks after vaccination, H1N1” value (from here on “Percent of subjects with seroconversion … H1N1”) [5, 9]?
Answer: 27%

Question: And the “Percent of subjects with seroconversion … H1N1” value [5, 10]?
Answer: 27%

Question: What about the “Percent of subjects with seroconversion … H1N1” value [5, 11] of the same molecule?
Answer: 17%

Question: And the “GMT ratio (week 4 post vaccination/baseline), A/H1N1” value ([5]; RAD001 0.5 mg daily, N = 50)?
Answer: 2.6

Question: And the “GMT ratio (week 4 post vaccination/baseline), A/H1N1” value ([5]; RAD001 5 mg weekly, N = 49)?
Answer: 2.5

Question: What about the “GMT ratio (week 4 post vaccination/baseline), A/H1N1” value ([5]; RAD001 20 mg weekly, N = 49) of the same molecule?
Answer: 1.8

Question: And the “Percent of subjects with seroconversion … H1N1” value [5, 12]?
Answer: 42%

Question: And the “Percent of subjects with seroconversion … H1N1” value [5, 13]?
Answer: 45%

Question: And the “Percent of subjects with seroconversion … H1N1” value [5, 14]?
Answer: 36%

Question: What about the “HI GMT, A/H1N1” value [5, 15] of the same molecule?
Answer: 190.2

Question: And the “HI GMT, A/H1N1” value [5, 16]?
Answer: 198.73

Question: And the “HI GMT, A/H1N1” value [5, 17]?
Answer: 129.7
